# Literature values, collected in patent EP4005587B1, “PHARMACEUTICAL COMPOSITION FOR TREATING LEVODOPA-INDUCED DYSKINESIA OR FOR SUPPRESSING PROGRESSION THEREOF” (Peptron, Inc., priority 2019, dated 2026).
# What was measured:
# [1] = system: MPTP mouse model for Parkinson's disease; conditions: given daily for 7 days after treatment
# [2] = compared to GLP-1-Tf
substance,measurement,setting,value
exendin-4,neuro-protection,[1],not effective
same,acute effects of L-DOPA,lesioned rats; lesioned rats,potentiated
same,6-OHDA induced damage,"lesioned rats; rat, in vivo",reduces 6-OHDA induced damage
same,LIDS,"lesioned rats; rat, in vivo",progressive reduction
same,rotarod performance,[2],improve rotarod performance
